{"source": "patent US11542233B2", "about": "“Compounds, compositions and methods of use” (Aquinnah Pharmaceuticals, Inc., priority 2016, dated 2023)", "note": "pIC50: −log10 of the molar value.", "data": [{"tested_on": "TDP-43 aggregation in PC12 cells stably expressing GFP-tagged mutant TDP-43 (TDP-43^Q33IK::eGFP)", "assay": "In vitro efficacy assay: inhibition of TDP-43 inclusions, concentration-response, fluorescence microscopy", "type": "cell-based", "conditions": "Rattus norvegicus, PC-12, PC12 cells, 1 hour pre-treatment, 15 μM sodium arsenite for 23 hours, 10-point dose response curve", "method_in_brief": "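PC12 cells stably expressing TDP-43^Q33IK::eGFP pre-treated 1 h with compound, then stressed with 15 μM sodium arsenite for 23 h. Fluorescence microscopy gave the fraction of GFP-positive cells bearing aggregates; IC50 from concentration-response, reported in bins: A <100 nM, B 100–500 nM, C 500 nM–2 μM, D >2 μM.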", "values": [{"smiles": "CCN(C(=O)c1cc2ccccc2[nH]1)[C@H]1CCC[C@@H](NCc2cccc(Cl)c2)C1", "note": "[Compound 134]", "pIC50": "> 7.00"}, {"smiles": "CCN(C(=O)c1cc2ccccc2[nH]1)[C@@H]1CCC[C@H](NCc2ccccc2)C1", "note": "[Compound 103]", "pIC50": "5.70 to 6.30"}, {"smiles": "CCN(C(=O)c1cc2ccccc2[nH]1)[C@H]1CCC[C@@H](N2CCc3ccccc3C2)C1", "note": "[Compound 115]", "pIC50": "5.70 to 6.30"}, {"smiles": "CCN(C(=O)c1cc2ccccc2[nH]1)C1CCC[C@H](N[C@H]2CCc3ccccc32)C1", "note": "(some centres unmarked) [Compound 509]", "pIC50": "< 5.70"}, {"smiles": "CCN(C(=O)c1cc2ccccc2[nH]1)[C@H]1CCC[C@@H](NCc2cccc(N=[N+]=[N-])c2)C1", "note": "[Compound 316, N-((1S,3R)-3-((3-azidobenzyl)amino)cyclohexyl)-N-ethyl-1H-indole-2-carboxamide]", "pIC50": "> 7.00"}, {"smiles": "CCN(C(=O)c1cc2cc(OC(F)(F)F)ccc2[nH]1)[C@H]1CCC[C@@H](NCc2ccccc2)C1", "note": "[Compound 542, N-((1S,3R)-3-(benzylamino)cyclohexyl)-N-ethyl-5-(trifluoromethoxy)-1H-indole-2-carboxamide]", "pIC50": "> 7.00"}, {"smiles": "CCN(C(=O)c1cc2ncccc2[nH]1)[C@H]1CCC[C@@H](NCc2nnc(C)s2)C1", "note": "[Compound 439]", "pIC50": "< 5.70"}, {"smiles": "CCN(C(=O)c1cc2ncccc2[nH]1)[C@H]1CCC[C@@H](NCc2cc(C)on2)C1", "note": "[Compound 445]", "pIC50": "6.30 to 7.00"}, {"smiles": "CCN(C(=O)c1cc2ccccc2[nH]1)[C@H]1CCC[C@H](NC2(c3ccccc3)CC2)C1", "note": "[Compound 421]", "pIC50": "< 5.70"}, {"smiles": "CCN(C(=O)c1cc2ccccc2[nH]1)C1CCCC(NC2CCc3ccccc32)C1", "note": "(centres unmarked) [Compound 112]", "pIC50": "> 7.00"}, {"smiles": "CCN(C(=O)c1cc2ccccc2[nH]1)[C@@H]1COC[C@H](N[C@@H]2CCc3ccccc32)C1", "note": "[Compound 505, N-((3S,5R)-5-(((R)-2,3-dihydro-1H-inden-1-yl)amino)tetrahydro-2H-pyran-3-yl)-N-ethyl-1H-indole-2-carboxamide]", "pIC50": "< 5.70"}, {"smiles": "CCN(C(=O)c1nc2ccccc2[nH]1)[C@H]1CCC[C@@H](NCc2nnc(C3CC3)o2)C1", "note": "[Compound 513, N-((1S,3R)-3-(((5-cyclopropyl-1,3,4-oxadiazol-2-yl)methyl)amino)cyclohexyl)-N-ethyl-1H-benzo[d]imidazole-2-carboxamide]", "pIC50": "6.30 to 7.00"}, {"smiles": "CCN(C(=O)c1cc2ncccc2[nH]1)[C@H]1CCC[C@@H](NCc2cc(C3CC3)on2)C1", "note": "[Compound 436]", "pIC50": "> 7.00"}, {"smiles": "C#CCOc1cccc(CN[C@@H]2CCC[C@H](N(CC)C(=O)c3nc4c(N)cccc4[nH]3)C2)c1", "note": "[Compound 568]", "pIC50": "> 7.00"}, {"smiles": "CCN(C(=O)c1cc2ccccc2[nH]1)[C@H]1CCC[C@@H](N(C)Cc2ccccc2)C1", "note": "[Compound 105, N-((1S,3R)-3-(benzyl(methyl)amino)cyclohexyl)-N-ethyl-1H-indole-2-carboxamide]", "pIC50": "6.30 to 7.00"}, {"smiles": "C#CCOc1ccc(CN[C@@H]2CCC[C@H](N(CC)C(=O)c3nc4c(N)cccc4[nH]3)C2)cc1", "note": "[Compound 567]", "pIC50": "> 7.00"}, {"smiles": "CCN(C(=O)c1cc2ncccc2[nH]1)[C@H]1CCC[C@@H](NCc2nccs2)C1", "note": "[Compound 446]", "pIC50": "5.70 to 6.30"}, {"smiles": "CCN(C(=O)c1nc2ccccc2[nH]1)[C@H]1CCC[C@@H](NCc2cccc(OC(F)(F)F)c2)C1", "note": "[Compound 472]", "pIC50": "> 7.00"}, {"smiles": "CCN(C(=O)c1cc2ccccc2[nH]1)[C@H]1CCC[C@@H](NCc2nccs2)C1", "note": "[Compound 465, N-ethyl-N-((1S,3R)-3-((thiazol-2-ylmethyl)amino)cyclohexyl)-1H-indole-2-carboxamide]", "pIC50": "5.70 to 6.30"}, {"smiles": "CCN(C(=O)c1cc2cc(F)ccc2[nH]1)[C@H]1CCC[C@@H](NCc2ccccc2)C1", "note": "[Compound 547, N-((1S,3R)-3-(benzylamino)cyclohexyl)-N-ethyl-5-fluoro-1H-indole-2-carboxamide]", "pIC50": "> 7.00"}, {"smiles": "CCN(C(=O)c1cc2cc(F)ccc2[nH]1)[C@H]1CCC[C@@H](NCc2ccc(F)cc2)C1", "note": "[Compound 551]", "pIC50": "> 7.00"}, {"smiles": "CCN(C(=O)c1cc2ccccc2[nH]1)[C@H]1CCC[C@@H](NCc2oc3ccccc3c2C#N)C1", "note": "[Compound 496]", "pIC50": "> 7.00"}, {"smiles": "C#CCOc1cccc(CN[C@@H]2CCC[C@H](N(CC)C(=O)c3nc4c(N=[N+]=[N-])cccc4[nH]3)C2)c1", "note": "[Compound 560]", "pIC50": "> 7.00"}, {"smiles": "CCN(C(=O)c1nc2cc(F)ccc2[nH]1)[C@H]1CCC[C@@H](NCc2oc3ccccc3c2C)C1", "note": "[Compound 524]", "pIC50": "> 7.00"}, {"smiles": "C#CCOc1ccc(CN[C@@H]2CCC[C@H](N(CC)C(=O)c3nc4c([N+](=O)[O-])cccc4[nH]3)C2)cc1", "note": "[Compound 565]", "pIC50": "> 7.00"}, {"smiles": "CCN(C(=O)c1nc2cc(F)ccc2[nH]1)[C@H]1CCC[C@@H](NCc2cc3ccccc3o2)C1", "note": "[Compound 523]", "pIC50": "> 7.00"}, {"smiles": "CCN(C(=O)c1cc2ccccc2[nH]1)[C@H]1CCC[C@@H](NCc2cc3cc(F)ccc3o2)C1", "note": "[Compound 433]", "pIC50": "> 7.00"}, {"smiles": "CCN(C(=O)c1nc2ccccc2[nH]1)[C@H]1CCC[C@@H](NCc2ccc(F)cc2)C1", "note": "[Compound 475]", "pIC50": "> 7.00"}, {"smiles": "CCN(C(=O)c1cc2ccccc2[nH]1)[C@H]1CCC[C@@H](NCc2cnn(C)c2)C1", "note": "[Compound 461]", "pIC50": "5.70 to 6.30"}, {"smiles": "CCN(C(=O)c1nc2ccccc2[nH]1)[C@H]1CCC[C@@H](NCc2cc(C3CC3)no2)C1", "note": "[Compound 495, N-((1S,3R)-3-(((3-cyclopropylisoxazol-5-yl)methyl)amino)cyclohexyl)-N-ethyl-1H-benzo[d]imidazole-2-carboxamide]", "pIC50": "> 7.00"}, {"smiles": "CCN(C(=O)c1nc2ccccc2[nH]1)[C@@]1(C)CCC[C@@H](NCc2ccccc2)C1", "note": "[Compound 555, N-((1S,3R)-3-(benzylamino)-1-methylcyclohexyl)-N-ethyl-1H-benzo[d]imidazole-2-carboxamide]", "pIC50": "< 5.70"}, {"smiles": "CCN(C(=O)c1cc2c(OC)cccc2[nH]1)[C@H]1CCC[C@@H](NCc2ccccc2)C1", "note": "[Compound 129]", "pIC50": "> 7.00"}, {"smiles": "O=C(c1cc2ccccc2[nH]1)N(CC(F)(F)F)[C@H]1CCC[C@@H](NCc2cccnc2)C1", "note": "[Compound 175]", "pIC50": "> 7.00"}, {"smiles": "CCN(C(=O)c1cc2ccncc2[nH]1)[C@H]1CCC[C@@H](NCc2ccccc2)C1", "note": "[Compound 403]", "pIC50": "6.30 to 7.00"}, {"smiles": "CCN(C(=O)c1cc2ccccc2[nH]1)[C@@H]1C[C@@H](NCc2ccccc2)CS(=O)(=O)C1", "note": "[Compound 314, N-((3R,5R)-5-(benzylamino)-1,1-dioxidotetrahydro-2H-thiopyran-3-yl)-N-ethyl-1H-indole-2-carboxamide]", "pIC50": "< 5.70"}]}]}
